The text below walks through data of patent US20040265847A1, “Method for treating Alzheimer's disease” (priority 1991, published 2004).

SMILES strings stand for the structures.

Assay [1] concerns PC12 cells. Briefly: Effect of extracellular zinc on cultured PC12 cells (APP by Western blot). Type of assay: cell-based. The following applies: 48 hr. The protocol: 10^6 PC12 cells were plated for 24 hr in the presence of Dulbecco's modified Eagle's medium (DMEM, N2) supplemented with 8% fetal calf serum (FCS). The medium was then removed and replaced with DMEM±2 to 50 μM ZnCl2 or another salt, and no FCS. Cells and media were harvested 48 hr later and aliquots of media, cell cytosol and membrane (following lysis and ultracentrifugation) were assayed for APP by Western blotting with mAb 22C11.

The test system of assay [2] is human brain membrane-derived APP. Briefly: trypsin digestion of human brain membrane-derived APP, Western blot with 22C11. The class given is biochemical. From the text:
The proteolytic activity of trypsin (Boehringer, Mannheim) was studied to determine whether it was modulated by a range of doses of heparin (Sigma) and ZnCl2. […] Western blots for APP using the APP binding monoclonal antibody 22C11 were used to monitor the progression of the proteolytic reaction and to detect breakdown products.

The test system of assay [3] is APP-degrading protease. Briefly: Assay of APP-degrading protease (Zn^2+-enhanced degradation of plasma 130 kDa APP). The class given is biochemical, human. As to conditions: heparin-Sepharose eluates, 37° C.
For assay [4], the system named is trypsin. Briefly: tryptic activity on fluorogenic substrate Z-F-R-AMC. The class given is biochemical. The following applies: range of doses.
The subject of assay [5] is APP. Briefly: Effect of zinc loading upon rat brain APP. As to conditions: 120 mg/kg injected daily for four days. The class given is in vivo. The protocol: 16 week old Sprauge-Dawley male rats were injected daily for four days with 120 mg/kg ZnCl2 solution. The animals were then anaesthetized, bled by intracardiac puncture and their brains removed, homogenized and separated into membrane and soluble fractions following ultracentrifugation.

The test system of assay [6] is human brain full-length APP. Briefly: ^125I-APP binding to heparin-Sepharose. The protocol:
100 kDa human brian full-length APP was iodinated by the Chloramine-T method. Iodinated APP (^125I-APP) was then separated from labelling reagents by Sephacryl G25 chromatography.
The column was then washed with 6 ml buffer 1 and the APP eluted with aliquots of high-NaCl buffers.

Assay [7] deals with T1, APP purified from rat brain (Rattus norvegicus, UniProt P08592).
T1 construct: from tissue; host or cells: rat brain
The experiment in a line: heparin binding to APP in a Biosensor system. As for the experimental part: The effect of Zn^2+ in modulating heparin binding to APP was also studied in a Biosensor system. […] This effect was most pronounced and most specific for Zn^2+, as opposed to the absence of divalent cations or the presence of Ca^2+, Mg^2+ or Co^2+, and was most evident when the heparin:APP ratio was low. […] Zn^2+ at 50 nM promoted a =170% increase in heparin binding, the effect saturating at 70 μM.

T1 sequence (P08592 18-770): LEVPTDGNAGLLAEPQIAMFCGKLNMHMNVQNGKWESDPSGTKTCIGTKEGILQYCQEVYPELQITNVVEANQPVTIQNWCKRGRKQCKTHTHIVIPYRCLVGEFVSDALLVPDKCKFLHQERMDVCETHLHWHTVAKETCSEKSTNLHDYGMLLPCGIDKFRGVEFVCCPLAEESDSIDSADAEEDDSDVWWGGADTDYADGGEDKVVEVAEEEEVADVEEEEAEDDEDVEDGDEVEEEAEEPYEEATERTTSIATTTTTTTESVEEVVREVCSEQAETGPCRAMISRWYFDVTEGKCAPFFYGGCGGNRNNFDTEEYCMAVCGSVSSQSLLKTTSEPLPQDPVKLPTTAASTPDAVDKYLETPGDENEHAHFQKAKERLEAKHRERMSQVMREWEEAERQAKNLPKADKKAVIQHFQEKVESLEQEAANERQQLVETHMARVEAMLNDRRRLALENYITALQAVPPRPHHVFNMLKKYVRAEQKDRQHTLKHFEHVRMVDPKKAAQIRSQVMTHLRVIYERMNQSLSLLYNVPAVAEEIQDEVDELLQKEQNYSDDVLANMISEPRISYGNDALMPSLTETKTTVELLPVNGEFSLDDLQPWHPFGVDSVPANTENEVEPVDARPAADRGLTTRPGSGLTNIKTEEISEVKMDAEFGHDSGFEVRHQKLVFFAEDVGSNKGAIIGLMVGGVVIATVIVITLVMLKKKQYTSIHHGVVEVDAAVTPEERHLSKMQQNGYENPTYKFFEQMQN

In the case of `[Cl-].[Cl-].[Zn+2]` [Zn^2+, ZnCl2], the “increase in APP released into the media” value in assay [1] (2 μM) is recorded as 50%. Further, the “increase in APP released into the media (peak)” value in assay [1] (50 μM) stood at 200%. Further, in assay [1], the “cytosolic APP” value was “Smaller increases in cytosolic APP” and the “membrane associated APP levels” value was “no change in membrane associated APP levels”. Besides, in assay [2] (with heparin (1 μM)), the “Zn^2+ concentration that completely abolished the protective effect of heparin” value was “above 1 μM”. The “effect on rate of APP proteolysis by trypsin” value in assay [2] (without heparin, Zn^2+ up to 100 μM, EDTA 1 mM) was “had no effect”. Further, in assay [3], the “effect on proteolysis of plasma APP” value is listed as “Proteolysis was accelerated”. Besides, in assay [4], the “effect on tryptic activity” value is given as “left tryptic activity unaltered”. In addition, the “new APP band in plasma” value in assay [5] is given as “development of a novel 80 kDa band in plasma”. Also, the “increase in the amounts of all forms of APP” value in assay [5] (plasma and brain preparations vs litter-mates) amounted to 80%. In addition, in assay [6], the “concentration at which increase in ^125I-APP binding to heparin reached a plateau” value came out at 75 µM. In assay [6] (50 μM Zn^2+), the “increase in ^125I-APP recovered from the 50-2000 mM NaCl elution fraction” value is listed as “approximately 3 fold” and the “increase in amount of brain APP binding to heparin” value was found to be 50%. Also, the “increase in ^125I-APP recovered from the 50-2000 mM NaCl elution fraction” value in assay [6] (100 μM Zn^2+) is listed as 4.5 fold. Besides, in assay [7], the “concentration at which effect on heparin binding saturates” value worked out at 70 µM. Further, the “effect on heparin binding to APP” value in assay [7] (100 μM) is given as “strongly promote heparin binding to APP”. Further, the “increase in heparin binding to rat brain APP” value in assay [7] (Zn^2+ at 50 nM) was found to be 170%.
